Reference: patent US20240217985A1, “CRYSTALLINE FORM OF AN MDM2-p53 INHIBITOR AND PHARMACEUTICAL COMPOSITIONS” (Boehringer Ingelheim International GmbH, priority 2022, published 2024)
One block for each molecule: values may come before it.

Tests used:
[1] = Aqueous solubility and BCS classification; assay type: physicochemical
[2] = Lipophilicity at physiological pH; assay type: physicochemical
[3] = Accelerated stress test, stability at 60°C/80% RH (XRPD and HPLC); assay type: physicochemical; settings: for Impurity 1 / Impurity 2 / Impurity 3 / Impurity 4 / Impurity 5 / Total impurities: 60°C/80% RH open storage
Procedure: (§1) Crystalline materials of Compound A of the present invention were exposed to various temperature and humidity stress conditions and investigated by XRPD and HPLC in order to investigate their physical and chemical stability.
The crystalline form of Compound A of the present invention (prepared according to the procedure described in Example 1 and 3, respectively) was open stored under heat and humidity stress conditions of 60° C. and 80% RH for 3 days.
For example, the increase in total impurities of crystalline compound A obtained according to the procedure of Example 3 was below 0.5%. Table 9, provides the chemical stability data of the crystalline compound A obtained according to the procedure of Example 1.

[4] = Accelerated stress test, stability at 40°C/75% RH (XRPD and HPLC); assay type: physicochemical; settings: Example 1 material
Procedure: as §1
The crystalline form of Compound A of the present invention (prepared according to the procedure described in Example 1) was open stored under heat and humidity stress conditions of 40° C. and 75% RH for 6 months.

[5] = Accelerated stress test, stability at 70°C and 105°C (XRPD and HPLC); assay type: physicochemical; settings: for Impurity 1 / Impurity 2 / Impurity 3 / Impurity 4 / Impurity 5 / Total Imp.: closed glass container
Procedure: as §1
The crystalline form of Compound A of the present invention (prepared according to the procedure described in Example 1) was stored in closed glass containers at heat stress condition of 70° C. for 3 weeks. In addition, the crystalline form of Compound A of the present invention (prepared according to the procedures described in Example 1 and 3, respectively) was stored in closed glass containers at heat stress condition of 105° C. for 24 hours.
For example, the increase in total impurities of crystalline compound A obtained according to the procedure of Example 3 was below 0.5%. Table 10, provides the chemical stability data of the crystalline compound A obtained according to the procedure of Example 1.

[6] = tiny-TIM in vitro bioaccessibility under simulated fasted conditions; assay type: in vitro ADME
Procedure: A tiny-TIM system was used as a model for the simulation of the physiological processes occurring in human stomach and small intestine to study the in vitro bioaccessibility of the crystalline Compound A of the present invention (prepared according to the procedure described in Example 1) under simulated fasted conditions. Thereby, the impact of drug substance particle size distribution (PSD) and amorphous content on bioaccessibility was evaluated by using tablets manufactured from a range of drug substance batches with different amorphous contents and variations in PSD. The investigated drug products also cover extreme conditions such as low amorphous content and coarse PSD as well as high amorphous content and fine PSD.

[7] = Gravimetric moisture sorption; assay type: physicochemical; settings: 0 to 90% relative humidity, 25.0°C
Procedure: The crystalline form of Compound A of the present invention was subjected to a gravimetric moisture sorption experiment using a DVS intrinsic moisture sorption analyzer (Surface Measurement System). The measurement was conducted in relative humidity steps of 10%. The time per step was set to a minimum of 5 minutes and a maximum of 6 hours. If an equilibrium condition with a constant mass of ±0.02% within 10 min was reached before the maximum time, the subsequent step was applied before the maximum time of 6 hours. If no equilibrium was achieved the consecutive humidity step was applied after the maximum time of 6 hours. The temperature was (25.0±0.1° C.)

[8] = Accelerated stress test, stability at 25°C/60% RH (XRPD and HPLC); assay type: physicochemical; settings: Example 1 material; for Impurity 1 / Impurity 2 / Impurity 3 / Impurity 4 / Impurity 5 / Total impurities: 25°C/60% RH open storage
Procedure: as §1
The crystalline form of Compound A of the present invention (prepared according to the procedure described in Example 1) was open stored under humidity stress conditions of 25° C. and 60% RH for 6 months.

[9] = Example 1 material, open storage 60°C/80% RH, 3 days
[10] = Example 3 material, open storage 60°C/80% RH, 3 days
[11] = initial, before 40°C/75% RH storage
[12] = open storage 40°C/75% RH, 6 months
[13] = Example 1 material, 70°C, 3 weeks
[14] = Example 1 material, 105°C, 24 hours
[15] = Example 1 material, 70°C, 1 week
[16] = Example 1 material, 70°C, 2 weeks
[17] = Example 1 material, closed glass containers, 70°C, 3 weeks
[18] = Example 1 material, closed glass containers, 105°C, 24 hours
[19] = Example 3 material, closed glass containers, 105°C, 24 hours
[20] = open storage 25°C/60% RH, 6 months

aqueous solubility ([1]; across the physiological pH range): low
biopharmaceutical classification system class ([1]; class II = low solubility, high permeability): class II
lipophilicity [2]: lipophilic
Compound: Cc1c(C(=O)O)ccc2c3n(nc12)[C@@H]1[C@H](C3)N(CC2CC2)[C@@]2(C(=O)Nc3cc(Cl)ccc32)[C@H]1c1cccc(Cl)c1F [Compound A, (2′S,3′S,3a′S,10a′S)-6-chloro-3′-(3-chloro-2-fluorophenyl)-1′-(cyclopropylmethyl)-6′-methyl-2-oxo-1,2,3′,3a′,10′,10a′-hexahydro-1′H-spiro[indole-3,2′-pyrrolo[2′,3′:4,5]pyrrolo[1,2-b]indazole]-7′-carboxylic acid]

Impurity 1 ([3]; Example 1 material, 3 days): 0.07%
Impurity 2 ([3]; Example 1 material, 3 days): ≤0.05%
Impurity 3 ([3]; Example 1 material, 3 days): 0.07%
Impurity 4 ([3]; Example 1 material, 3 days): 0.24%
Impurity 5 ([3]; Example 1 material, 3 days): 0.31%
Total impurities ([3]; Example 1 material, 3 days): 0.69%
Impurity 1 ([3]; Example 1 material, Start): 0.08%
Impurity 2 ([3]; Example 1 material, Start): 0.06%
Impurity 3 ([3]; Example 1 material, Start): ≤0.05%
Impurity 4 ([3]; Example 1 material, Start): 0.26%
Impurity 5 ([3]; Example 1 material, Start): 0.26%
Total impurities ([3]; Example 1 material, Start): 0.66%
stability under stress conditions (summary) ([3]; Example 1 material, 60°C/80% relative humidity, 3 days): stable
physical stability: XRPD of initial samples vs stressed samples [3, 9]: No differences in reflection positions
physical and chemical stability under stress conditions (summary) ([3]; Example 3 material, 60°C/80% relative humidity, 3 days): physically and chemically stable
increase in total impurities [3, 10]: below 0.5%
physical stability: XRPD of initial samples vs stressed samples [3, 10]: No differences in reflection positions
stability under accelerated stress conditions (summary) ([4]; 40°C/75% relative humidity, 6 months): stable
Impurity A, Initial Peak Area-% [4, 11]: 0.06%
Impurity B, Initial Peak Area-% [4, 11]: 0.06%
Impurity C, Initial Peak Area-% [4, 11]: 0.05%
Impurity D, Initial Peak Area-% [4, 11]: 0.23%
Impurity E, Initial Peak Area-% [4, 11]: 0.31%
Total impurities, Initial Peak Area-% [4, 11]: 0.71%
Impurity A, Peak Area-% at 6 months [4, 12]: Not detected
Impurity B, Peak Area-% at 6 months [4, 12]: 0.06%
Impurity C, Peak Area-% at 6 months [4, 12]: 0.06%
Impurity D, Peak Area-% at 6 months [4, 12]: 0.25%
Impurity E, Peak Area-% at 6 months [4, 12]: 0.33%
Total impurities, Peak Area-% at 6 months [4, 12]: 0.70%
physical stability: XRPD of initial sample vs stressed sample [4, 12]: No differences in reflection positions
physical and chemical stability under temperature stress (summary) [5, 13]: physically and chemically stable
physical and chemical stability under temperature stress (summary) [5, 14]: physically and chemically stable
Impurity 1 [5, 15]: 0.07%
Impurity 2 [5, 15]: ≤0.05%
Impurity 3 [5, 15]: 0.07%
Impurity 4 [5, 15]: 0.24%
Impurity 5 [5, 15]: 0.26%
Total Imp. [5, 15]: 0.64%
Impurity 1 [5, 16]: 0.07%
Impurity 2 [5, 16]: ≤0.05%
Impurity 3 [5, 16]: 0.06%
Impurity 4 [5, 16]: 0.23%
Impurity 5 [5, 16]: 0.25%
Total Imp. [5, 16]: 0.61%
Impurity 1 [5, 13]: 0.07%
Impurity 2 [5, 13]: ≤0.05%
Impurity 3 [5, 13]: 0.07%
Impurity 4 [5, 13]: 0.24%
Impurity 5 [5, 13]: 0.31%
Total Imp. [5, 13]: 0.69%
Impurity 1 [5, 14]: 0.07%
Impurity 2 [5, 14]: ≤0.05%
Impurity 3 [5, 14]: 0.06%
Impurity 4 [5, 14]: 0.23%
Impurity 5 [5, 14]: 0.25%
Total Imp. [5, 14]: 0.61%
Impurity 1 ([5]; Example 1 material, Start): 0.08%
Impurity 2 ([5]; Example 1 material, Start): 0.06%
Impurity 3 ([5]; Example 1 material, Start): ≤0.05%
Impurity 4 ([5]; Example 1 material, Start): 0.26%
Impurity 5 ([5]; Example 1 material, Start): 0.26%
Total Imp. ([5]; Example 1 material, Start): 0.66%
chemical stability: impurity profiles of initial samples vs stressed samples [5, 17]: remained chemically stable
physical stability: XRPD of initial samples vs stressed samples [5, 17]: No differences in reflection positions
chemical stability: impurity profiles of initial samples vs stressed samples [5, 18]: remained chemically stable
physical stability: XRPD of initial samples vs stressed samples [5, 18]: No differences in reflection positions
physical and chemical stability under temperature stress (summary) ([5]; Example 3 material, 105°C, 24 hours): physically and chemically stable
increase in total impurities [5, 19]: below 0.5%
physical stability: XRPD of initial samples vs stressed samples [5, 19]: No differences in reflection positions
bioaccessibility profile, crystalline form versus amorphous Compound A ([6]; tablets): comparable bioaccessibility profiles
effect of PSD and amorphous content on bioaccessibility and concentration profiles ([6]; tablets from batches of Table 15 (amorphous content 6-75%, D50 3.6-25.0 μm)): did not have a significant effect
water uptake ([7]; material obtained from ACN/H2O (Example 3)): about 3.1 % (w/w)
water uptake ([7]; material obtained from IPA/H2O (Example 1)): about 3.6 % (w/w)
Impurity 1 ([8]; 1 month): 0.07%
Impurity 2 ([8]; 1 month): ≤0.05%
Impurity 3 ([8]; 1 month): 0.06%
Impurity 4 ([8]; 1 month): 0.23%
Impurity 5 ([8]; 1 month): 0.25%
Total impurities ([8]; 1 month): 0.61%
Impurity 1 ([8]; 2 months): 0.07%
Impurity 2 ([8]; 2 months): ≤0.05%
Impurity 3 ([8]; 2 months): 0.06%
Impurity 4 ([8]; 2 months): 0.23%
Impurity 5 ([8]; 2 months): 0.25%
Total impurities ([8]; 2 months): 0.61%
Impurity 1 ([8]; 3 months): 0.07%
Impurity 2 ([8]; 3 months): ≤0.05%
Impurity 3 ([8]; 3 months): ≤0.05%
Impurity 4 ([8]; 3 months): 0.23%
Impurity 5 ([8]; 3 months): 0.25%
Total impurities ([8]; 3 months): 0.60%
Impurity 1 ([8]; 6 months): 0.07%
Impurity 2 ([8]; 6 months): ≤0.05%
Impurity 3 ([8]; 6 months): 0.06%
Impurity 4 ([8]; 6 months): 0.23%
Impurity 5 ([8]; 6 months): 0.27%
Total impurities ([8]; 6 months): 0.63%
Impurity 1 ([8]; Start): 0.08%
Impurity 2 ([8]; Start): 0.06%
Impurity 3 ([8]; Start): ≤0.05%
Impurity 4 ([8]; Start): 0.26%
Impurity 5 ([8]; Start): 0.26%
Total impurities ([8]; Start): 0.66%
stability under stress conditions (summary) ([8]; 25°C/60% relative humidity, 6 months): stable
physical stability: XRPD of initial sample vs stressed sample [8, 20]: No differences in reflection positions
Compound: Cc1c(C(=O)O)ccc2c3n(nc12)[C@@H]1[C@H](C3)N(CC2CC2)[C@@]2(C(=O)Nc3cc(Cl)ccc32)[C@H]1c1cccc(Cl)c1F [crystalline form of Compound A, (2′S,3′S,3a′S,10a′S)-6-chloro-3′-(3-chloro-2-fluorophenyl)-1′-(cyclopropylmethyl)-6′-methyl-2-oxo-1,2,3′,3a′,10′,10a′-hexahydro-1′H-spiro[indole-3,2′-pyrrolo[2′,3′:4,5]pyrrolo[1,2-b]indazole]-7′-carboxylic acid]
chemical stability: impurity profiles of initial samples vs stressed samples [3, 9]: no significant increase of chemical impurities
chemical stability: impurity profile of initial sample vs stressed sample [4, 12]: no significant increase of chemical impurities
chemical stability: impurity profile of initial samples vs stressed samples [8, 20]: no significant increase of chemical impurities
